# Test results reported in patent US20240239752A1, “BICYCLIC HETEROAROMATIC INHIBITORS OF KLK5” (BioCryst Pharmaceuticals, Inc., priority 2021, published 2024).
# Target: T1, recombinant human KLK5 (Homo sapiens, UniProt Q9Y337)
# T1 construct: purchased Novoprotein or R&D Systems C415 or 1108-SE
# T1 sequence (Q9Y337 23-293): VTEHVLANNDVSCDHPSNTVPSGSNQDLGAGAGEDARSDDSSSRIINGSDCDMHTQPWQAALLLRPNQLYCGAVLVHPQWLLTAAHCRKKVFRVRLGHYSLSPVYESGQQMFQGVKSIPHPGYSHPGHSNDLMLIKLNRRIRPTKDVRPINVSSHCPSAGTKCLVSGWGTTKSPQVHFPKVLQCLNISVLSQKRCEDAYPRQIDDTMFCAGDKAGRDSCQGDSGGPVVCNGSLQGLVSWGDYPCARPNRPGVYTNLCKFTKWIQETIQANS
# Assay: Kallikrein (KLK) 5 enzymatic assay (Boc-VPR-AMC fluorogenic substrate)
# Assay type: biochemical
# Conditions: recombinant human KLK5 0.1 μg/well, Boc-VPR-AMC 100 μM, pH 7.5, room temperature, 1% DMSO; tested a minimum of three times
# Summary of the method: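 Recombinant human KLK5 (0.1 μg/well) was preincubated with compound at room temperature in 0.1 M NaH2PO4, pH 7.5, 1% DMSO, then started with 100 μM Boc-VPR-AMC. The rate was followed at 380/460 nm, and IC50 came from percent inhibition relative to enzyme alone, with at least three runs.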
row,SMILES,IC50
1,"CC(C)(C)OC(=O)N1CCC2(CC1)C[C@@H](Oc1ccccc1CC(=O)O)c1cc(-c3cccc4c(N)nccc34)ccc12 [Compound 394e, (R)-2-(2-((5-(1-aminoisoquinolin-5-yl)-1′-(tert-butoxycarbonyl)-2,3-dihydrospiro[indene-1,4′-piperidin]-3-yl)oxy)phenyl)acetic acid]",< 1000 nM
2,"COc1ccc(CC(=O)O)c(OC2c3cc(-c4cccc5c(N)nccc45)ccc3CC2(C)C)c1 (stereo not drawn) [Compound 440c, 2-(2-((6-(1-aminoisoquinolin-5-yl)-2,2-dimethyl-2,3-dihydro-1H-inden-1-yl)oxy)-4-methoxyphenyl)acetic acid]",< 1000 nM
3,"Nc1nccc2c(-c3ccc4c(c3)c(COc3ccccc3CC(=O)O)nn4C3CCN(CC(=O)O)C3)cccc12 (stereo not drawn) [Compound 305b, 2-(2-((5-(1-aminoisoquinolin-5-yl)-1-(1-(carboxymethyl)pyrrolidin-3-yl)-1H-indazol-3-yl)methoxy)phenyl)acetic acid]",< 1000 nM
4,"COc1cc(-c2cccc3c(N)nccc23)cc2c(COc3ccccc3CC(=O)O)coc12 [Compound 235b, 2-(2-((5-(1-aminoisoquinolin-5-yl)-7-methoxybenzofuran-3-yl)methoxy)phenyl)acetic acid]",1000 to 10000 nM
5,"N=C(N)c1cccc(-c2cc3c(COc4ccccc4C(O)C(=O)O)cccc3o2)c1 (stereo not drawn) [Compound 268d, 2-(2-((2-(3-carbamimidoylphenyl)benzofuran-4-yl)methoxy)phenyl)-2-hydroxyacetic acid]",1000 to 10000 nM
6,"Nc1nccc2c(-c3ccc4c(c3)c(COc3ccccc3CC(=O)O)nn4C3CCOCC3)cccc12 [Compound 282b, 2-(2-((5-(1-aminoisoquinolin-5-yl)-1-(tetrahydro-2H-pyran-4-yl)-1H-indazol-3-yl)methoxy)phenyl)acetic acid]",< 1000 nM
7,"CC(C)CCN1CCC(n2nc(COc3ccccc3CC(=O)O)c3cc(-c4ccc5ccnc(N)c5c4)ccc32)C1 (stereo not drawn) [Compound 309c, 2-(2-((5-(1-aminoisoquinolin-7-yl)-1-(1-isopentylpyrrolidin-3-yl)-1H-indazol-3-yl)methoxy)phenyl)acetic acid]",< 1000 nM
8,"CCS(=O)(=O)N1CC(n2nc3ccc(-c4ccc5ccnc(N)c5c4)cc3c2COc2ccccc2CC(=O)O)C1 [Compound 133b, 2-(2-((5-(1-aminoisoquinolin-7-yl)-2-(1-(ethylsulfonyl)azetidin-3-yl)-2H-indazol-3-yl)methoxy)phenyl)acetic acid]",> 10000 nM
9,"CC(C)n1nc(COc2ccccc2CC(=O)O)c2cc(-c3cccc4cnc(N)cc34)ccc21 [Compound 56c, 2-(2-((5-(3-aminoisoquinolin-5-yl)-1-isopropyl-1H-indazol-3-yl)methoxy)phenyl)acetic acid]",> 10000 nM
10,"CC(C)n1nc(C(=O)Nc2ccccc2C(=O)O)c2cc(-c3cccc(C(=N)N)c3)ccc21 [Compound 1i, 2-(5-(3-carbamimidoylphenyl)-1-isopropyl-1H-indazole-3-carboxamido)benzoic acid]",1000 to 10000 nM
11,"COCCN1CCC(n2nc3ccc(-c4cccc5c(N)nccc45)cc3c2COc2ccccc2CC(=O)O)CC1 [Compound 134c, 2-(2-((5-(1-aminoisoquinolin-5-yl)-2-(1-(2-methoxyethyl)piperidin-4-yl)-2H-indazol-3-yl)methoxy)phenyl)acetic acid]",< 1000 nM
12,"CCc1cccc(OCc2nn(C3CCC3)c3ccc(-c4ccc5ccnc(N)c5c4)cc23)c1CC(=O)O [Compound 180g, 2-(2-((5-(1-aminoisoquinolin-7-yl)-1-cyclobutyl-1H-indazol-3-yl)methoxy)-6-ethylphenyl)acetic acid]",1000 to 10000 nM
13,"CC(C)(C)OC(=O)N1CCC(n2nc(COc3ccccc3CC(=O)O)c3cc(-c4cccc5c(N)nccc45)ccc32)C1 (stereo not drawn) [Compound 86h, 2-(2-((5-(1-aminoisoquinolin-5-yl)-1-(1-(tert-butoxycarbonyl)pyrrolidin-3-yl)-1H-indazol-3-yl)methoxy)phenyl)acetic acid]",< 1000 nM
14,"Nc1nccc2c(-c3cc(-c4ccccc4)c4c(c3)C(Oc3ccccc3CC(=O)O)CC4)cccc12 (stereo not drawn) [Compound 256f, 2-(2-((6-(1-aminoisoquinolin-5-yl)-4-phenyl-2,3-dihydro-1H-inden-1-yl)oxy)phenyl)acetic acid]",1000 to 10000 nM
15,"Nc1nccc2ccc(-c3ccc4c(c3)[C@H](Oc3ccccc3CC(=O)O)CC4)cc12 [Compound 215d, (R)-2-(2-((6-(1-aminoisoquinolin-7-yl)-2,3-dihydro-1H-inden-1-yl)oxy)phenyl)acetic acid]",< 1000 nM
16,"Nc1nccc2ccc(-c3ccc4nc(C5CC5)cc(COc5ccccc5CC(=O)O)c4c3)cc12 [Compound 12e, 2-(2-((6-(1-aminoisoquinolin-7-yl)-2-cyclopropylquinolin-4-yl)methoxy)phenyl)acetic acid]",> 10000 nM
17,"Nc1nccc2c(-c3ccc4nn(C5CCOC5)c(COc5ccccc5CC(=O)O)c4c3)cccc12 (stereo not drawn) [Compound 8g, 2-(2-((5-(1-aminoisoquinolin-5-yl)-2-(tetrahydrofuran-3-yl)-2H-indazol-3-yl)methoxy)phenyl)acetic acid]",< 1000 nM
18,"Nc1nccc2ccc(-c3ccc4c(c3)[C@@H](Oc3ccccc3CC(=O)O)CC4)cc12 [Compound 221d, (S)-2-(2-((6-(1-aminoisoquinolin-7-yl)-2,3-dihydro-1H-inden-1-yl)oxy)phenyl)acetic acid]",1000 to 10000 nM
19,"Nc1nccc2ccc(-c3ccc4c(c3)C(COc3ccccc3CC(=O)O)=CC43CCCC3)cc12 [Compound 401b, 2-(2-((5′-(1-aminoisoquinolin-7-yl)spiro[cyclopentane-1,1′-inden]-3′-yl)methoxy)phenyl)acetic acid]",< 1000 nM
20,"CC(C)OC(=O)N1CC[C@@H](n2nc(COc3ccccc3CC(=O)O)c3cc(-c4ccc5ccnc(N)c5c4)ccc32)C1 [Compound 362c, (R)-2-(2-((5-(1-aminoisoquinolin-7-yl)-1-(1-(isopropoxycarbonyl)pyrrolidin-3-yl)-1H-indazol-3-yl)methoxy)phenyl)acetic acid]",< 1000 nM
21,"CC1CC(n2nc(COc3ccccc3CC(=O)O)c3cc(-c4ccc5ccnc(N)c5c4)ccc32)C1 (stereo not drawn) [Compound 9j, 2-(2-((5-(1-aminoisoquinolin-7-yl)-1-(3-methylcyclobutyl)-1H-indazol-3-yl)methoxy)phenyl)acetic acid]",< 1000 nM
22,"Nc1nccc2c(-c3ccc4c(c3)c(Cn3ccc5cccc(C(=O)O)c53)nn4C3CCOC3)cccc12 (stereo not drawn) [Compound 274e, 1-((5-(1-aminoisoquinolin-5-yl)-1-(tetrahydrofuran-3-yl)-1H-indazol-3-yl)methyl)-1H-indole-7-carboxylic acid]",1000 to 10000 nM
23,"CC(C)n1nc(COc2ccccc2CC(=O)O)c2cc(-c3cnc4[nH]nc(N)c4c3)ccc21 [Compound 68c, 2-(2-((5-(3-amino-1H-pyrazolo[3,4-b]pyridin-5-yl)-1-isopropyl-1H-indazol-3-yl)methoxy)phenyl)acetic acid]",> 10000 nM
24,"N#Cc1cccc(CC(=O)O)c1OCc1nn(C2CCC2)c2ccc(-c3cccc4c(N)nccc34)cc12 [Compound 175b, 2-(2-((5-(1-aminoisoquinolin-5-yl)-1-cyclobutyl-1H-indazol-3-yl)methoxy)-3-cyanophenyl)acetic acid]",1000 to 10000 nM
